Several values for one entry are separate records, joined by “and”; a condition that tells them apart may be missing. Equal values may be shown once. Read-outs that look alike come from different tables or passages of the source.
Tests used:
[1] = Plasma pharmacokinetics in phase I clinical trial NCT04836195 (oral daily dose); type: in vivo, human; details: for AUC(0-t) / Cmax / Tmax / half-life: human, plasma; for AUC(0-t): read-out: AUC0-24 (mean, SD); for Cmax: read-out: Cmax (mean, SD)
Procedure: A phase I, multicenter, nonrandomized, open-label study of zelenirstat, entitled “Phase I Trial of PCLX-001 in B-cell Non-Hodgkin Lymphoma and Advanced Solid Malignancies” (reference 6), is being conducted and is registered at clinicaltrials.gov as NCT04836195. In this study, PCLX-001 was administered as an oral daily dose every morning to patients with advanced cancer, on 28-day cycles, until toxicity or progressive disease. Peripheral blood samples were collected over six time points in the first 8 hours of cycle 1 day 1, and again on cycle 1 day 15, with pretreatment day 1 levels obtained with every subsequent cycle. PCLX-001/zelenirstat plasma concentrations were quantified using a validated ultra-performance liquid chromatography with tandem mass spectrometry detection and analyzed using a nonlinear mixed-effects model.

[2] = Plasma, brain and CSF pharmacokinetics and brain tissue accumulation in mice (LC-MS/MS); type: in vivo, male C57BL/6 mice; details: 5 mg/kg oral, individual animals; for concentration at 8 h: read-out: Brain Conc.; for concentration at 24 h: read-out: CSF Conc.
[3] = oral, 20 mg, 20 mg, Cycle 1 D15
[4] = oral, 40 mg, 40 mg, Cycle 1 D15
[5] = oral, 70 mg, 70 mg, Cycle 1 D15
[6] = oral, 100 mg, 100 mg, Cycle 1 D1
[7] = oral, 100 mg, 100 mg, Cycle 1 D15
[8] = oral, 140 mg, 140 mg, Cycle 1 D1
[9] = oral, 140 mg, 140 mg, Cycle 1 D15
[10] = oral, 210 mg, 210 mg, Cycle 1 D1
[11] = oral, 210 mg, 210 mg, Cycle 1 D15

Cc1c(N[S+](=O)(O)c2c(Cl)cc(-c3ccnc(N4CCNCC4)c3)cc2Cl)c(CC(C)C)nn1C [PCLX-001]
AUC(0-t) ([1]; oral, 20 mg, 20 mg, Cycle 1 D1): 1580 ng·h/mL
Cmax ([1]; oral, 20 mg, 20 mg, Cycle 1 D1): 276 ng/mL
Tmax ([1]; oral, 20 mg, 20 mg, Cycle 1 D1, read-out: Tmax (median, range)): 2 h
half-life ([1]; oral, 20 mg, 20 mg, Cycle 1 D1, read-out: t½ (mean, SD) (converted)): 402 min
AUC(0-t) [1, 3]: 2070 ng·h/mL
Cmax [1, 3]: 359 ng/mL
Tmax ([1]; oral, 20 mg, 20 mg, Cycle 1 D15, read-out: Tmax (median, range)): 1 h
half-life ([1]; oral, 20 mg, 20 mg, Cycle 1 D15, read-out: t½ (mean, SD) (converted)): 444 min
AUC(0-t) ([1]; oral, 40 mg, 40 mg, Cycle 1 D1): 4820 ng·h/mL
Cmax ([1]; oral, 40 mg, 40 mg, Cycle 1 D1): 848 ng/mL
Tmax ([1]; oral, 40 mg, 40 mg, Cycle 1 D1, read-out: Tmax (median, range)): 0.9 h
half-life ([1]; oral, 40 mg, 40 mg, Cycle 1 D1, read-out: t½ (mean, SD) (converted)): 552 min
AUC(0-t) [1, 4]: 7060 ng·h/mL
Cmax [1, 4]: 774 ng/mL
Tmax ([1]; oral, 40 mg, 40 mg, Cycle 1 D15, read-out: Tmax (median, range)): 2.2 h
half-life ([1]; oral, 40 mg, 40 mg, Cycle 1 D15, read-out: t½ (mean, SD) (converted)): 582 min
AUC(0-t) ([1]; oral, 70 mg, 70 mg, Cycle 1 D1): 5650 ng·h/mL
Cmax ([1]; oral, 70 mg, 70 mg, Cycle 1 D1): 665 ng/mL
Tmax ([1]; oral, 70 mg, 70 mg, Cycle 1 D1, read-out: Tmax (median, range)): 3.9 h
half-life ([1]; oral, 70 mg, 70 mg, Cycle 1 D1, read-out: t½ (mean, SD) (converted)): 570 min
AUC(0-t) [1, 5]: 6610 ng·h/mL
Cmax [1, 5]: 467 ng/mL
Tmax ([1]; oral, 70 mg, 70 mg, Cycle 1 D15, read-out: Tmax (median, range)): 4.1 h
AUC(0-t) [1, 6]: 18900 ng·h/mL
Cmax [1, 6]: 2190 ng/mL
Tmax ([1]; oral, 100 mg, 100 mg, Cycle 1 D1, read-out: Tmax (median, range)): 2 h
half-life ([1]; oral, 100 mg, 100 mg, Cycle 1 D1, read-out: t½ (mean, SD) (converted)): 480 min
AUC(0-t) [1, 7]: 24700 ng·h/mL
Cmax [1, 7]: 2300 ng/mL
Tmax ([1]; oral, 100 mg, 100 mg, Cycle 1 D15, read-out: Tmax (median, range)): 4 h
half-life ([1]; oral, 100 mg, 100 mg, Cycle 1 D15, read-out: t½ (mean, SD) (converted)): 720 min
AUC(0-t) [1, 8]: 11900 ng·h/mL
Cmax [1, 8]: 1770 ng/mL
Tmax ([1]; oral, 140 mg, 140 mg, Cycle 1 D1, read-out: Tmax (median, range)): 1 h
half-life ([1]; oral, 140 mg, 140 mg, Cycle 1 D1, read-out: t½ (mean, SD) (converted)): 432 min
AUC(0-t) [1, 9]: 8150 ng·h/mL
Cmax [1, 9]: 1340 ng/mL
Tmax ([1]; oral, 140 mg, 140 mg, Cycle 1 D15, read-out: Tmax (median, range)): 2 h
half-life ([1]; oral, 140 mg, 140 mg, Cycle 1 D15, read-out: t½ (mean, SD) (converted)): 624 min
AUC(0-t) [1, 10]: 14700 ng·h/mL
Cmax [1, 10]: 1770 ng/mL
Tmax ([1]; oral, 210 mg, 210 mg, Cycle 1 D1, read-out: Tmax (median, range)): 3 h
half-life ([1]; oral, 210 mg, 210 mg, Cycle 1 D1, read-out: t½ (mean, SD) (converted)): 468 min
AUC(0-t) [1, 11]: 27600 ng·h/mL
Cmax [1, 11]: 2940 ng/mL
Tmax ([1]; oral, 210 mg, 210 mg, Cycle 1 D15, read-out: Tmax (median, range)): 2 h
half-life ([1]; oral, 210 mg, 210 mg, Cycle 1 D15, read-out: t½ (mean, SD) (converted)): 462 min
Tmax ([1]; oral, patients taking proton pump inhibitors (PPI), read-out: maximum Tmax value observed): ~8 h
Tmax ([1]; oral, patients taking proton pump inhibitors (PPI), read-out: median Tmax range): 1 to 6 h
half-life ([1]; oral, C1D1, read-out: mean terminal half-life across the dose cohorts): 402 to 570 min
Tmax ([1]; po, single oral 20 mg to 210 mg, C1D1, read-out: median Tmax values across the dose cohorts): 1 to 4 h
accumulation following repeated administration ([1]; majority of patients, 14 days): < 2 fold
accumulation beyond Day 15 ([1]; pre-dose concentrations over multiple cycles): no accumulation was apparent
Plasma Conc. ([2]; time point 0.00 h): 0 µM
concentration at 8 h ([2]; time point 0.00 h): 0.00 nM
concentration at 24 h ([2]; time point 0.00 h): 0.00 nM
Plasma Conc. ([2]; time point 0.25 h): 6.76256 µM and 8.5704 µM
concentration at 8 h ([2]; time point 0.25 h): 73.74 nM and 86.13 nM
concentration at 24 h ([2]; time point 0.25 h): 11.50 nM and 3.78 nM and 7.47 nM
Plasma Conc. ([2]; time point 0.50 h): 8.29421 µM and 6.59189 µM
concentration at 8 h ([2]; time point 0.50 h): 122.31 nM and 138.42 nM
concentration at 24 h ([2]; time point 0.50 h): 4.19 nM and 2.89 nM
Plasma Conc. ([2]; time point 1.00 h): 9.05165 µM and 8.88332 µM
concentration at 8 h ([2]; time point 1.00 h): 54.48 nM and 64.47 nM
